13 compounds from PubChem BioAssay (NCI) can be followed below.

Molecules are shown by their SMILES.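 Assay format: 96-well plates, 48-hour exposure. TGI is the concentration that stops growth completely.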 Where a SMILES comes first, the peptide text is derived from it. The star is where a group is joined. Ethyl(2-NMe3+) = C[N+](C)(C)CC*; Boc = CC(C)(C)OC(=O)*

Among the test systems are A549 NSCLC; SF-268 CNS; OVCAR-3 ovarian; SR leukemia; PC-3 prostate; SW-620 colon; UACC-257 melanoma; BT-549 breast; IGROV1 ovarian; SK-MEL-2 melanoma; DU-145 prostate; OVCAR-8 ovarian; KM12 colon; ACHN renal; OVCAR-4 ovarian; HCT-116 colon; OVCAR-5 ovarian; RPMI-8226 leukemia.
Common to all, as to assay: inhibition of tumour cell growth, NCI panel, 48 h

In the case of `CC(C)(C)OC(=O)N1CCC2(C)CC(=O)CC=C12` (configuration not stated), the TGI in the assay on A549 NSCLC, in the assay with SF-268 CNS, in the assay on OVCAR-3 ovarian, in the assay on SR leukemia, in the assay on PC-3 prostate and with SW-620 colon was above 100 µM in each case. Further, the TGI in the assay with UACC-257 melanoma, with BT-549 breast, with IGROV1 ovarian, in the assay with SK-MEL-2 melanoma, with DU-145 prostate and in the assay with OVCAR-8 ovarian was above 100 µM each time. The TGI with KM12 colon, with ACHN renal, with OVCAR-4 ovarian, with HCT-116 colon and in the assay with OVCAR-5 ovarian was above 100 µM each time.
Take `COc1ccc(NC(=O)/C(=N/NC(N)=S)C2C(=O)NC(=S)NC2=O)c(OC)c1`: the TGI in the assay with A549 NSCLC, in the assay with SF-268 CNS, in the assay with RPMI-8226 leukemia, in the assay on OVCAR-3 ovarian, in the assay on PC-3 prostate and in the assay with SW-620 colon was above 100 µM in each case. Further, the TGI in the assay on UACC-257 melanoma, with BT-549 breast, with IGROV1 ovarian, in the assay with SK-MEL-2 melanoma, in the assay on DU-145 prostate and in the assay with OVCAR-8 ovarian was above 100 µM in each case. Also, the TGI with KM12 colon, in the assay on ACHN renal, in the assay with OVCAR-4 ovarian, with HCT-116 colon and in the assay with OVCAR-5 ovarian was above 100 µM throughout.
In the case of `CN(N)/N=N/c1nc[nH]c1[N+](=O)[O-]`, the TGI in the assay on A549 NSCLC was above 100 µM; in the assay on SF-268 CNS it was above 100 µM; in the assay with RPMI-8226 leukemia, 57.3 µM; in the assay on OVCAR-3 ovarian, above 100 µM; in the assay on PC-3 prostate, above 100 µM; in the assay on SW-620 colon it was above 100 µM. Also, the TGI with UACC-257 melanoma, in the assay on BT-549 breast, with IGROV1 ovarian, in the assay with SK-MEL-2 melanoma, with DU-145 prostate and in the assay on OVCAR-8 ovarian was above 100 µM in each case. In addition, the TGI in the assay on KM12 colon, with ACHN renal, in the assay with OVCAR-4 ovarian, in the assay with HCT-116 colon and in the assay with OVCAR-5 ovarian was above 100 µM each time.
For `CC1=C(C(=O)N(C(C)C)C(C)C)CC(C(=O)N(C(C)C)C(C)C)=C(C)N1`, the TGI with A549 NSCLC, in the assay on SF-268 CNS, in the assay on RPMI-8226 leukemia, in the assay on OVCAR-3 ovarian, in the assay on PC-3 prostate and in the assay with SW-620 colon was above 100 µM each time. The TGI in the assay on UACC-257 melanoma, with BT-549 breast, in the assay with IGROV1 ovarian, with SK-MEL-2 melanoma, in the assay with DU-145 prostate and in the assay on OVCAR-8 ovarian was above 100 µM throughout. Also, the TGI in the assay with KM12 colon, with ACHN renal, with OVCAR-4 ovarian, with HCT-116 colon and with OVCAR-5 ovarian was above 100 µM throughout.
Take `Cc1ccc(C2=C(C#N)C(=O)N3CCN=C3S2)cc1`: the TGI in the assay on A549 NSCLC, in the assay on OVCAR-3 ovarian, in the assay with SR leukemia, with PC-3 prostate, in the assay with SW-620 colon and in the assay on UACC-257 melanoma was above 100 µM in each case. Also, the TGI in the assay with BT-549 breast, with IGROV1 ovarian, with SK-MEL-2 melanoma, in the assay with DU-145 prostate, with OVCAR-8 ovarian and in the assay on KM12 colon was above 100 µM each time. Besides, the TGI with ACHN renal, in the assay with OVCAR-4 ovarian, with HCT-116 colon and in the assay with OVCAR-5 ovarian was above 100 µM in each case.
In the case of `COC(=O)[C@@H](NC(=O)N(CCC#N)CCCN(C(=O)N[C@H](Cc1ccccc1)C(=O)OC)c1ccccc1)C(C)C`, the TGI in the assay on A549 NSCLC, in the assay on SF-268 CNS, with RPMI-8226 leukemia, in the assay on OVCAR-3 ovarian, in the assay with PC-3 prostate and with SW-620 colon was above 100 µM in each case. Further, the TGI with UACC-257 melanoma, in the assay with BT-549 breast, with IGROV1 ovarian, in the assay with SK-MEL-2 melanoma, with DU-145 prostate and with OVCAR-8 ovarian was above 100 µM each time. Also, the TGI with KM12 colon, in the assay with ACHN renal, with OVCAR-4 ovarian, in the assay on HCT-116 colon and in the assay with OVCAR-5 ovarian was above 100 µM in each case.
Take `CC(C)=c1sc(=C(C)C)c2c1=NC(C)(C)N=2`: the TGI with A549 NSCLC, in the assay on SF-268 CNS, in the assay on RPMI-8226 leukemia, in the assay with OVCAR-3 ovarian, in the assay with PC-3 prostate and with SW-620 colon was above 100 µM each time. For the same compound, the TGI with UACC-257 melanoma, with BT-549 breast, in the assay on IGROV1 ovarian, in the assay with SK-MEL-2 melanoma, in the assay with DU-145 prostate and in the assay with OVCAR-8 ovarian was above 100 µM in each case. Further, the TGI in the assay on KM12 colon, with ACHN renal, with OVCAR-4 ovarian, in the assay on HCT-116 colon and with OVCAR-5 ovarian was above 100 µM each time.
With `CC(C)(C)c1ccc(-n2c3nc(=O)n(-c4ccccc4CO)c(=O)c-3cc3ccccc32)cc1`, the TGI with A549 NSCLC was above 100 µM; in the assay on SF-268 CNS, above 100 µM; in the assay on SR leukemia it was 73 µM; in the assay on PC-3 prostate it was above 100 µM; with SW-620 colon, above 100 µM; in the assay with UACC-257 melanoma it was above 100 µM. The TGI in the assay with BT-549 breast, with IGROV1 ovarian, with DU-145 prostate, with OVCAR-8 ovarian, in the assay with KM12 colon and with ACHN renal was above 100 µM throughout. Besides, the TGI in the assay on OVCAR-4 ovarian, with HCT-116 colon and in the assay on OVCAR-5 ovarian was above 100 µM each time.
On to `COC(=O)c1c2c(cc3c1CC1(Cc4ccc(C(C)=O)cc4C1)C3)CCC2` (configuration not stated), for which the TGI was above 100 µM in the assay on A549 NSCLC; above 100 µM in the assay with SF-268 CNS; above 100 µM with RPMI-8226 leukemia; above 100 µM in the assay with OVCAR-3 ovarian; above 100 µM in the assay on SR leukemia; 82.2 µM in the assay with PC-3 prostate. Besides, the TGI in the assay with SW-620 colon, in the assay with UACC-257 melanoma, in the assay on BT-549 breast, with IGROV1 ovarian, in the assay on DU-145 prostate and in the assay with OVCAR-8 ovarian was above 100 µM throughout. Further, the TGI in the assay with KM12 colon, in the assay on ACHN renal, in the assay with OVCAR-4 ovarian, in the assay with HCT-116 colon and in the assay on OVCAR-5 ovarian was above 100 µM each time.
In the case of `CN1CCCOC(c2ccc([N+](=O)[O-])cc2)O1` (configuration not stated), the TGI in the assay with A549 NSCLC, with SF-268 CNS, with OVCAR-3 ovarian, in the assay on SR leukemia, in the assay on PC-3 prostate and in the assay on SW-620 colon was above 100 µM throughout. The TGI in the assay with UACC-257 melanoma, with BT-549 breast, with IGROV1 ovarian, in the assay on SK-MEL-2 melanoma, in the assay on DU-145 prostate and in the assay with OVCAR-8 ovarian was above 100 µM throughout. In addition, the TGI in the assay on KM12 colon, with ACHN renal, with OVCAR-4 ovarian, in the assay on HCT-116 colon and with OVCAR-5 ovarian was above 100 µM each time.
Regarding `CC(NC(=O)C(Cc1ccc(OCC[N+](C)(C)C)cc1)NC(=O)OC(C)(C)C)C(=O)NC(Cc1ccccc1)C(=O)NCC(N)=O` (configuration not stated) (Boc-Y(Ethyl(2-NMe3+))AFG-NH2; configuration not given here), the TGI with A549 NSCLC is above 100 µM; with SF-268 CNS, 25.7 µM; in the assay with RPMI-8226 leukemia it was above 100 µM; with OVCAR-3 ovarian, 60.3 µM; in the assay on PC-3 prostate, above 100 µM; in the assay with SW-620 colon, above 100 µM. Further, the TGI in the assay on UACC-257 melanoma was above 100 µM; in the assay with BT-549 breast, 45.8 µM; in the assay on IGROV1 ovarian, 58.4 µM; in the assay with SK-MEL-2 melanoma it was 25.2 µM; with DU-145 prostate it was above 100 µM; in the assay on OVCAR-8 ovarian, 55.3 µM. The TGI with KM12 colon was above 100 µM; with ACHN renal it was above 100 µM; in the assay with OVCAR-4 ovarian, above 100 µM; with HCT-116 colon it was above 100 µM; with OVCAR-5 ovarian, 59.5 µM.
Take `S=C1CSc2c(ccc3ccccc23)N1`: the TGI with A549 NSCLC, in the assay with SF-268 CNS, in the assay with RPMI-8226 leukemia, in the assay with OVCAR-3 ovarian, in the assay with SR leukemia and with PC-3 prostate was above 100 µM throughout. Also, the TGI with UACC-257 melanoma, in the assay with BT-549 breast, in the assay with IGROV1 ovarian, with DU-145 prostate, with OVCAR-8 ovarian and in the assay on KM12 colon was above 100 µM each time. Also, the TGI in the assay on ACHN renal, with OVCAR-4 ovarian, with HCT-116 colon and in the assay with OVCAR-5 ovarian was above 100 µM each time.
`CCCCN(Cc1ccccc1)C(=NC#N)N(Cc1ccccc1)Cc1ccccc1`: the TGI with A549 NSCLC was above 100 µM; in the assay with SF-268 CNS, above 100 µM; in the assay with RPMI-8226 leukemia, 49.8 µM; in the assay on OVCAR-3 ovarian it was 28.9 µM; in the assay on PC-3 prostate, 32.8 µM; in the assay on SW-620 colon, above 100 µM. For the same compound, the TGI is 50.7 µM in the assay on UACC-257 melanoma; 62.8 µM in the assay on BT-549 breast; above 89.5 µM in the assay with IGROV1 ovarian; 37.6 µM with SK-MEL-2 melanoma; above 100 µM with DU-145 prostate; above 100 µM in the assay with OVCAR-8 ovarian. The TGI in the assay with KM12 colon is 54 µM; in the assay on ACHN renal, above 72.3 µM; in the assay on OVCAR-4 ovarian, above 100 µM; with HCT-116 colon, 31.8 µM; with OVCAR-5 ovarian, above 100 µM.
